Experimental data from PMC7914897, “Cytotoxic Potential of a-Azepano- and 3-Amino-3,4-SeCo-Triterpenoids” (International Journal of Molecular Sciences, 2021).
Where two headings read alike, the source gives them in different places.

How the values were obtained:
CAKI-1 (Renal cancer) = experiment: NCI-60 screen (SRB, 48 h); details: CAKI-1, 1 dose 10 µM
[1] = system: NIH 3T3 (non-malignant mouse fibroblasts); experiment: SRB cytotoxicity assay, 72 h; assay type: cell-based; details: Mus musculus, NIH3T3; NIH 3T3, 72 h, cut-off 30 µM; read-out: EC50
Protocol: (§1) The cytotoxicity of compounds 1–20 was evaluated by means of a colorimetric sulforhodamine B (SRB) assay. For all compounds, the EC50 values were determined for the human tumor cell lines A375 (malignant melanoma), HT29 (colorectal carcinoma), MCF-7 (breast carcinoma), A2780 (ovarian carcinoma), FaDu (hypopharyngeal carcinoma), and NIH 3T3 (non-malignant mouse fibroblasts).
(§2) In short, exponentially growing cells were seeded into 96-well plates on day 0 at the appropriate cell densities to prevent confluence of the cells during the period of experiment. After 24 h, the cells were treated with serial dilutions of the compounds (0–30 µM) for 72 h. The final concentration of DMSO never exceeded 0.5%, which was non-toxic to the cells. After a 72 h treatment, the supernatant medium from the 96-well plates was discarded, and the cells were fixed with 10% TCA. For a thorough fixation, the plates were allowed to rest at 4 °C. After fixation, the cells were washed in a strip washer. The washing was done four times with water using alternate dispensing and aspiration procedures. The plates were then dyed with 100 µL of 0.4% SRB for about 20 min. After dying, the plates were washed with 1% acetic acid to remove the excess of the dye and allowed to air-dry overnight. Tris base solution (200 µL, 10 mM) was added to each well and absorbance was measured at λ = 570 nm (using a 96 well plate reader, Tecan Spectra, Crailsheim, Germany). The percentages of surviving cells relative to untreated controls were determined.

[2] = system: panel of approximately 60 cancer cell lines; experiment: NCI-60 screen (SRB, 48 h), full panel; details: for Positive Cytostatic Effect (cell lines with percent growth 0 to 50 / total) / Positive Cytotoxic Effect (cell lines with percent growth < 0 / total) / number of cancer cell lines the compound was active against: 1 dose 10 µM; for activity at 10 µM: Homo sapiens, 48 h
[3] = system: A2780 (ovarian carcinoma); experiment: SRB cytotoxicity assay, 72 h; assay type: cell-based, human; details: Homo sapiens; A2780, 72 h, cut-off 30 µM; read-out: EC50
Protocol: as §1, §2

[4] = system: A375 (malignant melanoma); experiment: SRB cytotoxicity assay, 72 h; assay type: cell-based, human; details: Homo sapiens, A-375, 72 h, A375, 72 h, cut-off 30 µM; read-out: EC50
Protocol: as §1, §2

MCF-7 (breast carcinoma) = experiment: SRB cytotoxicity assay, 72 h; assay type: cell-based, human; details: Homo sapiens, MCF7; MCF-7, 72 h, cut-off 30 µM; read-out: EC50
Protocol: as §1, §2

[5] = system: HT29 (colorectal carcinoma); experiment: SRB cytotoxicity assay, 72 h; assay type: cell-based, human; details: Homo sapiens, HT-29; HT29, 72 h, cut-off 30 µM; read-out: EC50
Protocol: as §1, §2

[6] = system: FaDu (hypopharyngeal carcinoma); experiment: SRB cytotoxicity assay, 72 h; assay type: cell-based, human; details: Homo sapiens, cut-off 30 µM, read-out: EC50
Protocol: as §1, §2

LOX IMVI (Melanoma) = system: LOX IMVI (Melanoma); design: method as in earlier work; details: cited from earlier work
[7] = system: NCI-H23 (NSC lung cancer); design: method as in earlier work; details: cited from earlier work
Leukemia subpanel = system: Leukemia subpanel; design: method as in earlier work; details: standard drugs, read-out: GI50 MG_MID; cited from earlier work
RXF 393 (Renal cancer) = system: RXF 393 (Renal cancer); design: method as in earlier work; details: cited from earlier work
SF-268 (CNS cancer) = system: SF-268 (CNS cancer); design: method as in earlier work; details: cited from earlier work
[8] = system: NCI-H226 (NSC lung cancer); design: method as in earlier work; details: cited from earlier work
MCF7 (Breast cancer) = system: MCF7 (Breast cancer); design: method as in earlier work; details: cited from earlier work
[9] = system: A549/ATCC (NSC lung cancer); design: method as in earlier work; details: cited from earlier work
[10] = system: NCI-H460 (NSC lung cancer); design: method as in earlier work; details: cited from earlier work
ACHN (Renal cancer) = system: ACHN (Renal cancer); design: method as in earlier work; details: cited from earlier work
EKVX (NSC lung cancer) = system: EKVX (NSC lung cancer); design: method as in earlier work; details: cited from earlier work
SNB-19 (CNS cancer) = system: SNB-19 (CNS cancer); design: method as in earlier work; details: cited from earlier work
[11] = system: MDA-MB-468 (Breast cancer); design: method as in earlier work; details: cited from earlier work
SW-620 (Colon cancer) = system: SW-620 (Colon cancer); design: method as in earlier work; details: cited from earlier work
RPMI-8226 (Leukemia) = system: RPMI-8226 (Leukemia); design: method as in earlier work; details: cited from earlier work
[12] = system: NCI-H522 (NSC lung cancer); design: method as in earlier work; details: cited from earlier work
SNB-75 (CNS cancer) = system: SNB-75 (CNS cancer); design: method as in earlier work; details: cited from earlier work
A498 (Renal cancer) = system: A498 (Renal cancer); design: method as in earlier work; details: cited from earlier work
CCRF-CEM (Leukemia) = system: CCRF-CEM (Leukemia); design: method as in earlier work; details: cited from earlier work
SK-MEL-5 (Melanoma) = system: SK-MEL-5 (Melanoma); design: method as in earlier work; details: cited from earlier work
[13] = system: MDA-MB-31/ATCC (Breast cancer); design: method as in earlier work; details: cited from earlier work
HOP-62 (NSC lung cancer) = system: HOP-62 (NSC lung cancer); design: method as in earlier work; details: cited from earlier work
U251 (CNS cancer) = system: U251 (CNS cancer); design: method as in earlier work; details: cited from earlier work
OVCAR-8 (Ovarian cancer) = system: OVCAR-8 (Ovarian cancer); design: method as in earlier work; details: cited from earlier work
CNS cancer subpanel = system: CNS cancer subpanel; design: method as in earlier work; details: standard drugs, read-out: GI50 MG_MID; cited from earlier work
SF-295 (CNS cancer) = system: SF-295 (CNS cancer); design: method as in earlier work; details: cited from earlier work
HOP-92 (NSC lung cancer) = system: HOP-92 (NSC lung cancer); design: method as in earlier work; details: cited from earlier work
T-47D (Breast cancer) = system: T-47D (Breast cancer); design: method as in earlier work; details: cited from earlier work
[14] = system: panel of approximately 60 cancer cell lines; design: method as in earlier work; details: standard drugs; read-out: GI50 MG_MID60; cited from earlier work
MOLT-4 (Leukemia) = system: MOLT-4 (Leukemia); design: method as in earlier work; details: cited from earlier work
HCT-116 (Colon cancer) = system: HCT-116 (Colon cancer); design: method as in earlier work; details: cited from earlier work
SR (Leukemia) [15] = system: SR (Leukemia); design: method as in earlier work; details: cited from earlier work
SN12C (Renal cancer) = system: SN12C (Renal cancer); design: method as in earlier work; details: cited from earlier work
SR (Leukemia) [16] = experiment: NCI-60 screen (SRB, 48 h); assay type: cell-based; details: 1 dose 10 µM
COLO 205 (Colon cancer) = experiment: NCI-60 screen (SRB, 48 h); details: COLO 205, 1 dose 10 µM

Q: For `CC1(C)NCCC[C@]2(C)[C@H]3CC(=O)[C@H]4[C@@H]5C[C@@](C)(CO)CC[C@]5(C)CC[C@@]4(C)[C@]3(C)CC[C@@H]12` [Compound 17], which “Growth % of the Most Sensitive Cell Lines” value (shortened to “Growth %”) (CAKI-1 (Renal cancer)) is on record?
A: 51.57%

Q: And the EC50 [1]?
A: 9.87 ± 1.3 µM

Q: And the “Positive Cytostatic Effect (cell lines with percent growth 0 to 50 / total)” value [2]?
A: 0/59

Q: And the “Positive Cytotoxic Effect (cell lines with percent growth < 0 / total)” value [2]?
A: 0/59

Q: And the “number of cancer cell lines the compound was active against” value [2]?
A: complete loss of cytotoxic activity

Q: And the activity at 10 µM ([2]; read-out: Mean Growth, %)?
A: 95.5%

Q: What about the activity at 10 µM ([2]; read-out: Range of Growth, %) of the same compound?
A: 51.6 to 118%

Q: What about the EC50 [3] of the same compound?
A: 9.19 ± 0.5 µM

Q: What about the EC50 [4] of the same compound?
A: 6.35 ± 0.5 µM

Q: What about the EC50 (MCF-7 (breast carcinoma)) of the same compound?
A: 5.55 ± 0.6 µM

Q: What about the EC50 [5] of the same compound?
A: 5.01 ± 0.8 µM

Q: And the EC50 [6]?
A: 6.36 ± 1.8 µM

Q: Which GI50 (LOX IMVI (Melanoma)) does the source give for `COc1cccc2c1C(=O)c1c(O)c3c(c(O)c1C2=O)C[C@@](O)(C(=O)CO)C[C@@H]3O[C@H]1C[C@H](N)[C@H](O)[C@H](C)O1` [DRB, doxorubicin] here?
A: 0.07 µM

Q: What about the GI50 [7] of the same compound?
A: 0.15 µM

Q: What about the GI50 (Leukemia subpanel) of the same compound?
A: 0.08 µM

Q: What about the GI50 (RXF 393 (Renal cancer)) of the same compound?
A: 0.1 µM

Q: What about the GI50 (SF-268 (CNS cancer)) of the same compound?
A: 0.1 µM

Q: And the GI50 [8]?
A: 0.05 µM

Q: And the GI50 (MCF7 (Breast cancer))?
A: 0.03 µM

Q: And the GI50 [9]?
A: 0.06 µM

Q: What about the GI50 [10] of the same compound?
A: 0.02 µM

Q: What about the GI50 (ACHN (Renal cancer)) of the same compound?
A: 0.08 µM

Q: And the GI50 (EKVX (NSC lung cancer))?
A: 0.41 µM

Q: And the GI50 (SNB-19 (CNS cancer))?
A: 0.04 µM

Q: What about the GI50 [11] of the same compound?
A: 0.05 µM

Q: And the GI50 (SW-620 (Colon cancer))?
A: 0.09 µM

Q: And the GI50 (RPMI-8226 (Leukemia))?
A: 0.08 µM

Q: And the GI50 [12]?
A: 0.03 µM

Q: And the GI50 (SNB-75 (CNS cancer))?
A: 0.07 µM

Q: What about the GI50 (A498 (Renal cancer)) of the same compound?
A: 0.1 µM

Q: What about the GI50 (CCRF-CEM (Leukemia)) of the same compound?
A: 0.08 µM

Q: And the GI50 (SK-MEL-5 (Melanoma))?
A: 0.08 µM

Q: And the GI50 [13]?
A: 0.51 µM

Q: What about the GI50 (HOP-62 (NSC lung cancer)) of the same compound?
A: 0.07 µM

Q: What about the GI50 (U251 (CNS cancer)) of the same compound?
A: 0.04 µM

Q: What about the GI50 (OVCAR-8 (Ovarian cancer)) of the same compound?
A: 0.1 µM

Q: What about the GI50 (CNS cancer subpanel) of the same compound?
A: 0.08 µM

Q: What about the GI50 (SF-295 (CNS cancer)) of the same compound?
A: 0.1 µM

Q: What about the GI50 (HOP-92 (NSC lung cancer)) of the same compound?
A: 0.1 µM

Q: And the GI50 (T-47D (Breast cancer))?
A: 0.06 µM

Q: What about the GI50 [14] of the same compound?
A: 0.38 µM

Q: What about the GI50 (MOLT-4 (Leukemia)) of the same compound?
A: 0.03 µM

Q: What about the GI50 (HCT-116 (Colon cancer)) of the same compound?
A: 0.08 µM

Q: And the GI50 (SR (Leukemia) [15])?
A: 0.03 µM

Q: And the GI50 (SN12C (Renal cancer))?
A: 0.07 µM

Q: Which results are given for `C=C(C)[C@@H]1CC[C@]2(C)[C@H](CC=C3[C@@H]4CC(C)(C)CC[C@]4(CO)CC[C@]32C)[C@@]1(C)CCCN` [Compound 18]?
A: EC50 [1]: 4.02 ± 0.7 µM; EC50 [3]: 4 ± 0.2 µM; EC50 [4]: 3.38 ± 0.2 µM; EC50 (MCF-7 (breast carcinoma)): 2.65 ± 0.2 µM; EC50 [5]: 1.72 ± 0.2 µM; EC50 [6]: 3.34 ± 0.3 µM

Q: For `CC1(C)NCCC[C@]2(C)[C@H]3CC=C4[C@@H]5C[C@@](C)(CO)CC[C@]5(C)CC[C@@]4(C)[C@]3(C)CC[C@@H]12` [Compound 5, azepano-glycyrretol], which EC50 [1] is on record?
A: 7.43 ± 1.2 µM

Q: And the “Positive Cytostatic Effect (cell lines with percent growth 0 to 50 / total)” value [2]?
A: 13/58

Q: What about the “Positive Cytotoxic Effect (cell lines with percent growth < 0 / total)” value [2] of the same compound?
A: 2/58

Q: And the “number of cancer cell lines the compound was active against” value [2]?
A: 8 cell lines

Q: What about the activity at 10 µM ([2]; read-out: Mean Growth, %) of the same compound?
A: 56.2%

Q: What about the activity at 10 µM ([2]; read-out: Range of Growth, %) of the same compound?
A: -4.98 to 98.9%

Q: And the “Growth %” value (SR (Leukemia) [16])?
A: −1.30%

Q: And the “Growth %” value (COLO 205 (Colon cancer))?
A: −4.98%

Q: What about the EC50 [3] of the same compound?
A: 6.36 ± 0.6 µM

Q: And the EC50 [4]?
A: 5.69 ± 0.4 µM

Q: What about the EC50 (MCF-7 (breast carcinoma)) of the same compound?
A: 5.68 ± 0.5 µM

Q: What about the EC50 [5] of the same compound?
A: 3.97 ± 0.4 µM

Q: And the EC50 [6]?
A: 4.81 ± 0.9 µM
